For test [1], the target named is T1, A disintegrin and metalloproteinase with thrombospondin motifs 5 (Homo sapiens, UniProt Q9UNA0).
T1 sequence (Q9UNA0 whole entry): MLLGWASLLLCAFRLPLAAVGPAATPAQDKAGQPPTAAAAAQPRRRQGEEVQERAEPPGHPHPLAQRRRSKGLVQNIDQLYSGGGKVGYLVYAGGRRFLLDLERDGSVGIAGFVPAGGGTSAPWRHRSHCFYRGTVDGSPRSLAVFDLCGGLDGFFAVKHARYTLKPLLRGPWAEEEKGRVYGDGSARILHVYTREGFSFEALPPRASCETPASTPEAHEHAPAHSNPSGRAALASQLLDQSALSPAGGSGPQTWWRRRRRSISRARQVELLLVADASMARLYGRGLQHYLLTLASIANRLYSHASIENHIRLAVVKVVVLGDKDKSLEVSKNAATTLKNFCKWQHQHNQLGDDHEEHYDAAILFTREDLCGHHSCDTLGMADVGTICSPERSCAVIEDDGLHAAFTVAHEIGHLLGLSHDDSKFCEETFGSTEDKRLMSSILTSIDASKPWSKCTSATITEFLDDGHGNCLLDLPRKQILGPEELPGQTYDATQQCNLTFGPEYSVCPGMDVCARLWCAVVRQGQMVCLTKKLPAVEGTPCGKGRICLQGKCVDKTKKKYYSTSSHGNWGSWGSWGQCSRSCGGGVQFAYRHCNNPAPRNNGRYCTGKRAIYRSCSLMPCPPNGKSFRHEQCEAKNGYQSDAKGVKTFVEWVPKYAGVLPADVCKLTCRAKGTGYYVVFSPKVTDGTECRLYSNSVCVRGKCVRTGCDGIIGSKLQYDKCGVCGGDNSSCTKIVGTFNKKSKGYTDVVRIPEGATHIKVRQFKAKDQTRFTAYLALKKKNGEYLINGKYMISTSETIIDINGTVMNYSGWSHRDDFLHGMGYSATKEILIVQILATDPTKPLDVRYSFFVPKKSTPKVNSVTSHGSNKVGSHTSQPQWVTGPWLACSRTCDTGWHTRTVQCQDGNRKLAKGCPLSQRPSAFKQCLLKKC
Put plainly: Inhibition of recombinant aggrecanase 2.

In test [2] the target is T2, Interstitial collagenase (Homo sapiens) (UniProt P03956).
T2 sequence (whole entry): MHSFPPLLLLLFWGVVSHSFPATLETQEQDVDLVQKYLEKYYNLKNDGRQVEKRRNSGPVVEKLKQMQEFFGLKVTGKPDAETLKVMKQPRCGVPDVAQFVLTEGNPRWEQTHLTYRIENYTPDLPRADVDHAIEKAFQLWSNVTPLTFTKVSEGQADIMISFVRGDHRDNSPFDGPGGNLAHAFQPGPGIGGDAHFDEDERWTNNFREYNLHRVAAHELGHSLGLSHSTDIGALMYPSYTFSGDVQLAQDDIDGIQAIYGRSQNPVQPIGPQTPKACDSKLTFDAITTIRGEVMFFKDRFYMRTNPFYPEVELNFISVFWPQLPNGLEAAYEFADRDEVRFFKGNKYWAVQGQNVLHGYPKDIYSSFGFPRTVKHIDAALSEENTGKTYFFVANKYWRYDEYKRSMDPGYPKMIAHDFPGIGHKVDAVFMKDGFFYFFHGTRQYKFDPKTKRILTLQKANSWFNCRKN
Put plainly: Inhibition of MMP1 at 10 uM.

Test [3] addresses Disintegrin and metalloproteinase domain-containing protein 17 (Homo sapiens) (UniProt P78536). Briefly: Inhibition of TACE at 10 uM.
Test [4] deals with T3, A disintegrin and metalloproteinase with thrombospondin motifs 5 (Homo sapiens) (UniProt Q9UNA0).
T3 sequence (whole entry): T1 sequence (Q9UNA0 whole entry)
Briefly: Inhibition of recombinant aggrecanase 2 at 10 uM.

pIC50: −log10 of the molar value. Active and inactive are the calls of the source. The rule behind the calls is not given here.

Disintegrin and metalloproteinase domain-containing protein 17 (Homo sapiens), sequence (P78536 whole entry, the tested form may be a part): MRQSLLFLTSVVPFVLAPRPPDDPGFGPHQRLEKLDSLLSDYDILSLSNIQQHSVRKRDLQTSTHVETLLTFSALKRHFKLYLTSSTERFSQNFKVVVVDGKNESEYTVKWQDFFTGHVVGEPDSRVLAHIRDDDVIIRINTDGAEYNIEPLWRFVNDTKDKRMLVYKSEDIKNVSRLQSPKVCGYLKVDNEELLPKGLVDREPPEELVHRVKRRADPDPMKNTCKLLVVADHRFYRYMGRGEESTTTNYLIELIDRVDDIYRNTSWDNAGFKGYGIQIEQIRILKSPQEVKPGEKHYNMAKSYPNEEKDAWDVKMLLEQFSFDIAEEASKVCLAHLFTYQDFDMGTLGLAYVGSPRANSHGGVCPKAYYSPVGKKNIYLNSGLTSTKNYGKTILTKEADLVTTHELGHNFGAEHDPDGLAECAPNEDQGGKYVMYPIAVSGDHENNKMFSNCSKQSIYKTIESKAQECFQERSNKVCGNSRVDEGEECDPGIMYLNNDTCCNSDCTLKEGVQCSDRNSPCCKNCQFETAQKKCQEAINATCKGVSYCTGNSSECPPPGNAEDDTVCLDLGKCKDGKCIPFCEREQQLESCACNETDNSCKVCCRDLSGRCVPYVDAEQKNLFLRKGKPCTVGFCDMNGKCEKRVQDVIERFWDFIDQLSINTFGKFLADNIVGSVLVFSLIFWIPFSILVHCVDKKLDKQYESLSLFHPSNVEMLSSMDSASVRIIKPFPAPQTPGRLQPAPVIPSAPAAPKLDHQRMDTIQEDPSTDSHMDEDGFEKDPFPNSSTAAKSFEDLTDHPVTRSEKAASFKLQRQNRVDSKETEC

With `O=C1CCC(=O)N1CCN([C@]1(C(=O)O)C[C@H]1c1ccccc1)S(=O)(=O)c1ccc(-c2ccc(Cl)cc2)cc1`, in test [1], the negative-log IC50 (pIC50) was 6.51. Further, the outcome in test [2] and in test [3] was inactive.

For `C[C@@](Cc1ccccc1)(C(=O)O)N(CCN1CCCC1=O)S(=O)(=O)c1ccc(-c2ccc(Cl)cc2)cc1`, in test [4], the inhibition is 0.1%.

Consider `O=C1CCCN1CCN([C@]1(C(=O)O)C[C@H]1c1ccccc1)S(=O)(=O)c1ccc(-c2ccncc2)cc1`, for which the inhibition in test [4] is 18%.

With `COc1cccn(CCN([C@]2(C(=O)O)C[C@H]2c2ccccc2)S(=O)(=O)c2ccc(-c3ccc(Cl)cc3)cc2)c1=O`, the pIC50 in test [1] is 7.11. Also, the outcome in test [2] and in test [3] was inactive.

For the molecule `O=C(O)[C@@]1(N(CCn2cnnn2)S(=O)(=O)c2ccc(-c3ccc(Cl)cc3)cc2)C[C@H]1c1ccccc1`, the negative-log IC50 (pIC50) in test [1] is 6.57. Besides, the outcome in test [2] and in test [3] was inactive.

For the molecule `O=C(O)[C@@]1(N(CCn2cnc3ncncc32)S(=O)(=O)c2ccc(-c3ccc(Cl)cc3)cc2)C[C@H]1c1ccccc1`, the pIC50 in test [1] is 7.15. In addition, the result in test [2] and in test [3] was inactive.

As for `O=C1CCCN1CCN([C@]1(C(=O)O)C[C@H]1c1ccccc1)S(=O)(=O)N1CC=C(c2ccc(Cl)cc2)CC1`, the pIC50 in test [1] is 6.06.

As for `O=C(O)[C@@]1(N(CCn2ccnc2)S(=O)(=O)c2ccc(-c3ccc(Cl)cc3)cc2)C[C@H]1c1ccccc1`, the negative-log IC50 (pIC50) in test [1] was 6.49. Moreover, the result in test [2] and in test [3] was inactive.

Turning to `O=C(O)[C@@H](Cc1ccccc1)NS(=O)(=O)c1ccc(-c2ccc(Cl)cc2)cc1`, the negative-log IC50 (pIC50) in test [1] was 5.49.

Turning to `O=C(O)[C@@H](Cc1ccccc1)N(CCN1CCCC1=O)S(=O)(=O)c1ccc(-c2ccc(Cl)cc2)cc1`, the negative logarithm of the IC50 (pIC50) in test [1] is 5.80.

For `O=C(O)[C@@H](Cc1ccccc1)N(Cc1ccccc1)S(=O)(=O)c1ccc(-c2ccc(Cl)cc2)cc1`, in test [4], the inhibition worked out at 30%.

Turning to `CN(C)c1ccc(-c2ccc(S(=O)(=O)N(CCN3CCCC3=O)[C@]3(C(=O)O)C[C@H]3c3ccccc3)cc2)cc1`, in test [1], the pIC50 is 5.18.

Consider `COC(=O)c1cn(CCN([C@]2(C(=O)O)C[C@H]2c2ccccc2)S(=O)(=O)c2ccc(-c3ccc(Cl)cc3)cc2)cn1`, for which the pIC50 in test [1] was 7.14. Further, the outcome in test [2] and in test [3] was inactive.

For `O=C(O)[C@@]1(N(CCc2cccnc2)S(=O)(=O)c2ccc(-c3ccc(Cl)cc3)cc2)C[C@H]1c1ccccc1`, the negative logarithm of the IC50 (pIC50) in test [1] was 6.54. Besides, the outcome in test [2] and in test [3] was inactive.

Regarding `O=C(O)[C@@]1(N(CCn2nccn2)S(=O)(=O)c2ccc(-c3ccc(Cl)cc3)cc2)C[C@H]1c1ccccc1`, in test [1], the pIC50 was 6.59. The outcome in test [2] and in test [3] was inactive.

Turning to `O=C1CCCCN1CCN([C@]1(C(=O)O)C[C@H]1c1ccccc1)S(=O)(=O)c1ccc(-c2ccc(Cl)cc2)cc1`, the negative-log IC50 (pIC50) in test [1] was 6.68. For the same molecule, the outcome in test [2] and in test [3] was inactive.

For the molecule `CC(=O)Nc1ccc(-c2ccc(S(=O)(=O)N(CCN3CCCC3=O)[C@]3(C(=O)O)C[C@H]3c3ccccc3)cc2)cc1`, the negative-log IC50 (pIC50) in test [1] was 5.35.

On to `O=C(O)[C@@H](Cc1ccccc1)N(CCc1ccccc1)S(=O)(=O)c1ccc(-c2ccc(Cl)cc2)cc1`, for which, in test [1], the negative logarithm of the IC50 (pIC50) is 5.14.

Take `O=C(O)[C@@]1(N(CCc2ccncc2)S(=O)(=O)c2ccc(-c3ccc(Cl)cc3)cc2)C[C@H]1c1ccccc1`: the pIC50 in test [1] is 6.12. Also, the outcome in test [2] and in test [3] was inactive.

Take `COCC#Cc1ccc(S(=O)(=O)N(CCN2CCCC2=O)[C@]2(C(=O)O)C[C@H]2c2ccccc2)cc1`: the inhibition in test [4] stood at 2.9%.

For the molecule `O=C(O)[C@@]1(N(CCn2cncn2)S(=O)(=O)c2ccc(-c3ccc(Cl)cc3)cc2)C[C@H]1c1ccccc1`, in test [1], the pIC50 was 6.74. The outcome in test [2] and in test [3] was inactive.

Consider `O=C(O)[C@@]1(N(CCn2cnnc2)S(=O)(=O)c2ccc(-c3ccc(Cl)cc3)cc2)C[C@H]1c1ccccc1`, for which the pIC50 in test [1] is 6.72. Further, the outcome in test [2] and in test [3] was inactive.

Turning to `COC(=O)c1cncn1CCN([C@]1(C(=O)O)C[C@H]1c1ccccc1)S(=O)(=O)c1ccc(-c2ccc(Cl)cc2)cc1`, the pIC50 in test [1] is 6.64. The result in test [2] and in test [3] was inactive.

For `O=C(O)[C@@H](Cc1ccccc1)N(CC1CC1)S(=O)(=O)c1ccc(-c2ccc(Cl)cc2)cc1`, in test [4], the inhibition came out at 46%.

Regarding `O=C1CCCN1CCN([C@]1(C(=O)O)C[C@H]1c1ccccc1)S(=O)(=O)c1ccc(-c2ccc(Cl)cc2)cc1`, the negative-log IC50 (pIC50) in test [1] is 6.70. Further, the result in test [2] and in test [3] was inactive.

For `O=C(O)[C@@]1(N(CCn2ccnn2)S(=O)(=O)c2ccc(-c3ccc(Cl)cc3)cc2)C[C@H]1c1ccccc1`, the pIC50 in test [1] was 6.57. Further, the result in test [2] and in test [3] was inactive.

For `O=C(O)[C@@]1(N(CCn2cnc3cncnc32)S(=O)(=O)c2ccc(-c3ccc(Cl)cc3)cc2)C[C@H]1c1ccccc1`, in test [1], the pIC50 was 6.77. For the same molecule, the result in test [2] and in test [3] was inactive.

Consider `CN([C@@H](Cc1ccccc1)C(=O)O)S(=O)(=O)c1ccc(-c2ccc(Cl)cc2)cc1`, for which the inhibition in test [4] was -0.12%.

As to `O=C(O)[C@@H](Cc1ccccc1)N(CC1CCCCC1)S(=O)(=O)c1ccc(-c2ccc(Cl)cc2)cc1`, in test [4], the inhibition was determined as 22%.

Take `O=C(O)[C@@]1(N(CCc2ccccn2)S(=O)(=O)c2ccc(-c3ccc(Cl)cc3)cc2)C[C@H]1c1ccccc1`: the pIC50 in test [1] was 6.09. Besides, the result in test [2] and in test [3] was inactive.

Consider `O=C1OCCCN1CCN([C@]1(C(=O)O)C[C@H]1c1ccccc1)S(=O)(=O)c1ccc(-c2ccc(Cl)cc2)cc1`, for which, in test [1], the pIC50 is 6.74. Further, the outcome in test [2] and in test [3] was inactive.

For the molecule `O=C1CCCN1CCN([C@]1(C(=O)O)C[C@H]1c1ccccc1)S(=O)(=O)c1ccc(C#CCO)cc1`, the inhibition in test [4] was -1.5%.

`CN([C@H](Cc1ccccc1)C(=O)O)S(=O)(=O)c1ccc(-c2ccc(Cl)cc2)cc1`: in test [1], the pIC50 is 5.10.

Take `O=C1CCCN1CCN([C@]1(C(=O)O)C[C@H]1c1ccccc1)S(=O)(=O)c1ccc(-c2ccc(Cl)cc2)nc1`: the negative-log IC50 (pIC50) in test [1] is 5.96.

As for `O=C1OCCN1CCN([C@]1(C(=O)O)C[C@H]1c1ccccc1)S(=O)(=O)c1ccc(-c2ccc(Cl)cc2)cc1`, in test [1], the pIC50 is 6.66. The result in test [2] and in test [3] was inactive.

One may read the pIC50 as the negative decadic logarithm of the IC50, by convention in mol/L. As usually defined, the inhibition is the relative decrease from the control value, in per cent.

Values taken from ChEMBL document CHEMBL1153928, “Novel N-substituted 2-phenyl-1-sulfonylamino-cyclopropane carboxylates as selective ADAMTS-5 (Aggrecanase-2) inhibitors” (Bioorg Med Chem Lett, 2009).
